Source: patent US10758585B2, “Beautyberry total glycosides extract and preparation method and use thereof” (Suzhou Neupharma Co., Ltd., priority 2012, dated 2020)

Test system: SH-SY5Y nerve cells
Assay: Protective effect against MPP+ induced SH-SY5Y nerve cell injury (MTT cell viability)
Type: cell-based
Details: 500 μM MPP+; for protective effect against MPP+ induced SH-SY5Y nerve cell injury: 24 h pre-protection + 24 h co-incubation, MTT, overall statement
Description: SH-SY5Y nerve cells were purchased from ATTC (American Type Culture Collection, Rockville, Md., U.S.A). The cells was cultured with RPMI1640 medium (a product of Hyclone Company) containing 10% fetal bovine serum, 2 mM/L glutamine, as well as 1% penicillium and streptomycin doubleantibiotics, in the incubator at 37° C. and 5% CO2.
The extract tested was the beautyberry total glycosides extract prepared in Example 5 which contained 37.75 wt % verbascoside and 28.01 wt % Arenarioside. The beautyberry total glycosides extract prepared in Example 5, and stock solutions of verbascoside and Arenarioside prepared in 2.1 above were dissolved and formulated respectively with phosphate buffer (PBS) and the resulted solutions were diluted to test concentrations with RPMI 1640 culture medium. MPP+ solution was prepared by dissolving MPP+ to 1 mM with PBS. The test concentration of MPP+ was 500 μM diluted with the culture medium. MTT was formulated with PBS, at a concentration of 0.5 mg/ml, and was filtered to remove bacteria using a 0.22 μm filter membrane prior to use.
SH-SY5Y nerve cells at a logarithmic growth phase were collected and counted with a cell counter. 200 μl of cell suspension with 4×10^4/ml was added into each well of the 96-well plate (converted to 8×10^3/200 μl of the culture medium) and was subjected to adherent culture in the incubator at 37° C. and 5% CO2 for 24 hours. The experiment included 11 groups: (1) a blank control group, wherein RPMI 1640 culture medium was used, and incubation at 5% CO2 and 37° C. was performed for 24 h; (2) a model group, wherein RPMI 1640 culture medium containing 500 μM MPP+ was used, and incubation at 5% CO2 and 37° C. was performed for 24 h; (3) a high dose group (16 μg/mL), a medium dose group (1.6 μg/mL), and a low dose group (0.16 μg/mL) (equivalent to 10 μM, 1 μM, and 0.1 μM verbascoside, respectively) of tests of the extract of Example 5 in the present invention; (4) a high dose group (10 μM), amedium dose group (1 μM), and a low dose group (0.1 μM) of theverbascoside monomer prepared above; and (5) a high dose group (10 μM), a medium dose group (1 μM), and a low dose group (0.1 μM) of the Arenarioside monomer prepared above; wherein, in each experimental dosage groups of (3), (4), and (5), mother liquid of the drug to be tested was firstly diluted to a set dosage concentration with the RPMI 1640 culture medium, then added at 100 μL into the cells, which were pre-protected at 5% CO2 and 37° C. for 24 h, then supernatant was carefully pipetted and discarded, then, mother liquid of the drug to be tested was diluted to a set dosage concentration with the RPMI 1640 culture medium containing 500 μM MPP+ that was formulated beforehand, then added at 100 μL into the cells, which were proceeded to incubation at 5% CO2 and 37° C. for 24 h. Supernatant was carefully pipetted and discarded, placed upside-down on an absorbent paper and patted dry. After the blank group and themodel group were incubated for 24 h, operations were performed using the same method. 5 parallel wells were provided for each group of the samples. MTT at a concentration of 0.5 mg/ml was added into each well of each group above, and incubated at 5% CO2 and 37° C. for 4 h. Supernatant was carefully pipetted and discarded, placed upside-down on an absorbent paper and patted dry. 200 μL of dimethyl sulfoxide (DMSO) was added into each well, and shaken for 300 s. The absorbance value of each well was determined at OD 570 nm, and cell viability was calculated according to the following formula: […]

Structure (SMILES)	cell viability compared with the model group (0.1 μM monomer)	cell viability compared with the model group (1 μM monomer)	protective effect against MPP+ induced SH-SY5Y nerve cell injury
CC1O[C@@H](O[C@@H]2C(O)[C@H](OCCc3ccc(O)c(O)c3)OC(CO[C@@H]3OC[C@@H](O)[C@@H](O)C3O)[C@@H]2OC(=O)/C=C/c2ccc(O)c(O)c2)C(O)[C@@H](O)[C@H]1O (stereo partly drawn) [Arenarioside]	significant higher cell viability as compared with the model group (p<0.01)	significant higher cell viability as compared with the model group (p<0.01)	has a protective effect
C[C@@H]1O[C@@H](O[C@@H]2[C@@H](O)[C@H](OCCc3ccc(O)c(O)c3)O[C@H](CO)[C@H]2OC(=O)/C=C/c2ccc(O)c(O)c2)[C@H](O)[C@H](O)[C@H]1O [verbascoside]	significant difference compared to the model group (p<0.01)	significant difference compared to the model group (p<0.01)	has a protective effect
